Results on 16 molecules are retold here after patent publication US20240294551A1 (AMGEN INC., priority 2022, published 2024).

In general, IC50 refers to the midpoint of a concentration-inhibition curve.

Assay [1] addresses His-tagged KRAS G12D protein (Homo sapiens (Human), UniProt P01116, G12D). As to the kind of experiment: KRAS G12D TR-FRET Assay. The conditions noted are these: read-out: KRAS G12D Binding IC50. Format: binding. The essentials: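 Each incubation ran at room temperature: enzyme with compound for 30 minutes, peptide for one hour, and detection reagents (0.4 nM europium anti-6×His, 5 nM streptavidin-d2) for one hour more. Protein and peptide stocks were each diluted to 20 nM before addition.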
For orientation: In TR-FRET formats the signal depends on donor and acceptor labels being close together.

The target in assay [2] is GDP-bound KRAS protein (aa 1-169), containing both G12D and C118A amino acid substitutions (Homo sapiens (Human), UniProt P01116, C118A/G12D). The assay is described as follows: KRAS G12D Coupled Nucleotide Exchange Assay. The settings on record: read-out: KRAS G12D Coupled Exchange IC50. The format is biochemical.
Chain of GDP-bound KRAS protein (aa 1-169), containing both G12D and C118A amino acid substitutions (P01116 other isoform, or with tags, fused parts or gaps G12D/C118A): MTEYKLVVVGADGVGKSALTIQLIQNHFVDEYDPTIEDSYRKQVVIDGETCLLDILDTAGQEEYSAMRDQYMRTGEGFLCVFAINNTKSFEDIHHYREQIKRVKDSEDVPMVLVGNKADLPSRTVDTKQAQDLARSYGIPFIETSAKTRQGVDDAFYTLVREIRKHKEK

Chain of His-tagged KRAS G12D protein (P01116 other isoform, or with tags, fused parts or gaps G12D): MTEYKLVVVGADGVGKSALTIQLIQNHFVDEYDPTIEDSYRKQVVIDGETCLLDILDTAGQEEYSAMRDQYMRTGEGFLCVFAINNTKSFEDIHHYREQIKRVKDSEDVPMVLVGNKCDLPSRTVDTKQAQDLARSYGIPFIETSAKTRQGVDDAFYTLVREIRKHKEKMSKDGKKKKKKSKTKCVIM

For `O=C1OCCCc2c(Cl)cc3[nH]ncc3c2-c2ncc3c(nc(OC[C@@]45CCCN4C[C@H](F)C5)nc3c2F)N2CC[C@@H]3CCN1[C@@H]3C2` [Example 176, (28R,32S)-18-chloro-33-fluoro-4-(((2R,7aS)-2-fluorotetrahydro-1H-pyrrolo[1,2-a]pyrrol-7a(5H)-yl)methoxy)-23-oxa-1,3,5,9,14,15,25-heptaazaheptacyclo[23.5.2.1~6,10~.0~2,7~.0~11,19~.0~12,16~.0~28,32~]tritriaconta-2,4,6,8,10(33),11,13,16,18-nonaen-24-one], the results for the IC50 in assay [1] and in assay [2] were 0.287 µM and 0.179 µM, respectively.

On to `CN1C(=O)OCCCc2c(Cl)cc3[nH]ncc3c2-c2ncc3c(nc(OC[C@@]45CCCN4C[C@H](F)C5)nc3c2F)N2CCOC[C@@H]1C2` [Example 178, (26S)-18-chloro-32-fluoro-4-(((2R,7aS)-2-fluorotetrahydro-1H-pyrrolo[1,2-a]pyrrol-7a(5H)-yl)methoxy)-25-methyl-23,28-dioxa-1,3,5,9,14,15,25-heptaazahexacyclo[24.4.1.1~6,10~.0~2,7~.0~11,19~.0~12,16~]dotriaconta-2,4,6,8,10(32),11,13,16,18-nonaen-24-one], for which the IC50 amounted to 0.079 µM in assay [1] and 0.044 µM in assay [2].

For the molecule `CN1CCC[C@H]1COc1nc2c3cnc(c(F)c3n1)-c1c(c(Cl)cc3[nH]ncc13)CCCOC(=O)O[C@@]1(C)COCCN2C1` [Example 180, (26R)-18-chloro-32-fluoro-26-methyl-4-(((2S)-1-methyl-2-pyrrolidinyl)methoxy)-23,25,28-trioxa-1,3,5,9,14,15-hexaazahexacyclo[24.4.1.1~6,10~.0~2,7~.0~11,19~.0~12,16~]dotriaconta-2,4,6,8,10(32),11,13,16,18-nonaen-24-one], the IC50 in assay [1] is 1.51 µM; in assay [2] it was 0.689 µM.

Take `Cc1cc2[nH]ncc2c2c1CCCOC(=O)O[C@@]1(C)COCCN(C1)c1nc(OC[C@@H]3CCCN3C)nc3c(F)c-2ncc13` [Example 182, (26R)-32-fluoro-18,26-dimethyl-4-(((2S)-1-methyl-2-pyrrolidinyl)methoxy)-23,25,28-trioxa-1,3,5,9,14,15-hexaazahexacyclo[24.4.1.1~6,10~.0~2,7~.0~11,19~.0~12,16~]dotriaconta-2,4,6,8,10(32),11,13,16,18-nonaen-24-one]: the results for the IC50 in assay [1] and in assay [2] were 7.57 µM and 3.62 µM, respectively.

On to `O=C1OCCCc2c(Cl)cc3[nH]ncc3c2-c2c(F)cc3c(nc(OC[C@@]45CCCN4C[C@H](F)C5)nc3c2F)N2CCOC[C@H](C2)O1` [Example 188, m-(26S)-18-chloro-9,32-difluoro-4-(((2R,7aS)-2-fluorotetrahydro-1H-pyrrolo[1,2-a]pyrrol-7a(5H)-yl)methoxy)-23,25,28-trioxa-1,3,5,14,15-pentaazahexacyclo[24.4.1.1~6,10~.0~2,7~.0~11,19~.0~12,16~]dotriaconta-2,4,6,8,10(32),11,13,16,18-nonaen-24-one], for which the concentration for half-maximal inhibition (IC50) in assay [1] amounted to 0.071 µM; in assay [2], 0.044 µM.

`O=C1OCCCc2c(Cl)cc3[nH]ncc3c2-c2ncc3c(nc(O[C@H]4CCOC4)nc3c2F)N2CCOC[C@H](C2)O1` [Example 196, (26S)-18-chloro-32-fluoro-4-((3S)-tetrahydro-3-furanyloxy)-23,25,28-trioxa-1,3,5,9,14,15-hexaazahexacyclo[24.4.1.1~6,10~.0~2,7~.0~11,19~.0~12,16~]dotriaconta-2,4,6,8,10(32),11,13,16,18-nonaen-24-one]: the half-inhibitory concentration (IC50) in assay [1] turned out to be 0.167 µM; in assay [2], 0.214 µM.

As for `O=C1OCCCc2c(Cl)cc3[nH]ncc3c2-c2ncc3c(nc(O[C@@H]4CCOC4)nc3c2F)N2CCOC[C@H](C2)O1` [Example 197, (26S)-18-chloro-32-fluoro-4-((3R)-tetrahydro-3-furanyloxy)-23,25,28-trioxa-1,3,5,9,14,15-hexaazahexacyclo[24.4.1.1~6,10~.0~2,7~.0~11,19~.0~12,16~]dotriaconta-2,4,6,8,10(32),11,13,16,18-nonaen-24-one], the 50% inhibitory concentration (IC50) in assay [1] turned out to be 0.09 µM; in assay [2], 0.105 µM.

With `Cc1nc2c3cnc(c(F)c3n1)-c1c(c(C)cc3[nH]ncc13)CCCOC(=O)O[C@@H]1COCCN2C1` [Example 210, (26S)-32-fluoro-4,18-dimethyl-23,25,28-trioxa-1,3,5,9,14,15-hexaazahexacyclo[24.4.1.1~6,10~.0~2,7~.0~11,19~.0~12,16~]dotriaconta-2,4,6,8,10(32),11,13,16,18-nonaen-24-one], the half-inhibitory concentration (IC50) was determined as 0.435 µM in assay [1] and 0.431 µM in assay [2].

Regarding `Cc1nc2c3cnc(c(F)c3n1)-c1c(c(C)cc3[nH]ncc13)[C@H]1C[C@H]1COC(=O)O[C@@H]1CCCN2C1` [Example 211, (11S,13R,18R)-31-fluoro-9,25-dimethyl-15,17-dioxa-5,6,22,24,26,30-hexaazaheptacyclo[25.3.1.1~18,22~.0~2,10~.0~3,7~.0~11,13~.0~23,28~]dotriaconta-1(31),2,4,7,9,23,25,27,29-nonaen-16-one], the figures for the IC50 in assay [1] and in assay [2] were 0.617 µM and 0.268 µM, respectively.

As to `N#Cc1cc(Cl)c2c(c1)-c1ncc3c(nc(OC[C@@]45CCCN4C[C@H](F)C5)nc3c1F)N1CCOC[C@H](C1)OC(=O)OCCC2` [Example 216], the 50% inhibitory concentration (IC50) in assay [1] is 0.074 µM; in assay [2], 0.055 µM.

For `Fc1ccc2cccc3c2c1CCOCC[C@@H]1CCCN(C1)c1nc(OC[C@@]24CCCN2C[C@H](F)C4)nc2c(F)c-3ncc12` [Example 223], the figures for the IC50 in assay [1] and in assay [2] were 0.642 µM and 0.343 µM, respectively.

`Fc1c2ncc3c(nc(OC[C@@]45CCCN4C[C@H](F)C5)nc13)N1CCO[C@@H](CCOCCCc3c(Cl)cc4[nH]ncc4c3-2)C1` [Example 224]: the concentration for half-maximal inhibition (IC50) came to 0.063 µM in assay [1] and 0.039 µM in assay [2].

For the molecule `O[C@H]1c2ncc(o2)CCc2c(Cl)cc3[nH]ncc3c2-c2ncc3c(nc(OC[C@@]45CCCN4C[C@H](F)C5)nc3c2F)N2CCC[C@@H]1C2` [Example 234], the IC50 is 0.077 µM in assay [1] and 0.009 µM in assay [2].

Regarding `OC1CCCCc2c(Cl)cc3[nH]ncc3c2-c2ncc3c(nc(OC[C@@]45CCCN4C[C@H](F)C5)nc3c2F)N2CCOCC(C1)C2` (some centres unmarked) [Example 235], the results for the IC50 in assay [1] and in assay [2] were 0.24 µM and 0.125 µM, respectively.

With `Cc1cc2[nH]ncc2c2c1CCCCO[C@H](C)[C@H]1CN(CCO1)c1nc(OC[C@@]34CCCN3C[C@H](F)C4)nc3c(F)c-2ncc13` [Example 241, (16R,17R)-30-fluoro-24-(((2R,7aS)-2-fluorotetrahydro-1H-pyrrolo[1,2-a]pyrrol-7a(5H)-yl)methoxy)-9,16-dimethyl-15,18-dioxa-5,6,21,23,25,29-hexaazahexacyclo[24.3.1.1~17,21~.0~2,10~.0~3,7~.0~22,27~]hentriaconta-1(30),2,4,7,9,22,24,26,28-nonaene], the IC50 in assay [1] was determined as 1.29 µM; in assay [2], 1.41 µM.

Take `Cc1cc2[nH]ncc2c2c1CCCCO[C@@H](C)[C@H]1CN(CCO1)c1nc(OC[C@@]34CCCN3C[C@H](F)C4)nc3c(F)c-2ncc13` [Example 242, (16S,17R)-30-fluoro-24-(((2R,7aS)-2-fluorotetrahydro-1H-pyrrolo[1,2-a]pyrrol-7a(5H)-yl)methoxy)-9,16-dimethyl-15,18-dioxa-5,6,21,23,25,29-hexaazahexacyclo[24.3.1.1~17,21~.0~2,10~.0~3,7~.0~22,27~]hentriaconta-1(30),2,4,7,9,22,24,26,28-nonaene]: the values for the half-inhibitory concentration (IC50) in assay [1] and in assay [2] were 1.14 µM and 1.05 µM, respectively.
